Data as given in PMC11747885, “Potent inhibitors of the human RNA ligase Rlig1 highlights its role in RNA integrity maintenance under oxidative cellular stress” (Chemical Science, 2025).
Values joined by “and” are separate entries in the source; they are usually repeats but may differ in a detail not shown here. Equal entries are not always repeated. Where two headings read alike, the source gives them in different places.

Columns and labels:
[1] = target: ATPase family AAA domain-containing protein 2 (ATAD2); parameters: method as in MedChemExpress; details: ref MedChemExpress; cited from earlier work
Rlig1-AMP = target: T1, Rlig1-AMP (Homo sapiens, UniProt Q8N999); assay: FRET-based high-throughput screening of inhibitors for Rlig1-AMP; format: biochemical; details: for 1-D Distance: difference of raw data w/o and w enzyme; for Raw data [w Enyzm]: with enzyme; for Raw data [w/o Enzym]: without enzyme; for 1-D Distance.npi: MedChemExpress library
T1 construct: made in house; host or cells: E. coli BL21 (DE3), pET15b-Rlig1
T1 sequence (Q8N999 whole entry): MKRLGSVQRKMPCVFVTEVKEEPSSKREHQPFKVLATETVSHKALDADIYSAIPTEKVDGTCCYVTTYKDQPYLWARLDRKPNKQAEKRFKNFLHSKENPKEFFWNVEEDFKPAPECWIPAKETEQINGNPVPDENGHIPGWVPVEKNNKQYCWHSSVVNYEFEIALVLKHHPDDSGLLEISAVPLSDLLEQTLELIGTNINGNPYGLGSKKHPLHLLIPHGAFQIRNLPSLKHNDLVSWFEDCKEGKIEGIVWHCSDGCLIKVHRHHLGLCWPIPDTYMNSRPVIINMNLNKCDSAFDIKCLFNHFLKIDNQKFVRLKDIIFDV

[2] = ref MedChemExpress, cited from earlier work
LTB4 receptor = target: LTB4 receptor; parameters: method as in MedChemExpress [1]; details: isolated human neutrophil cell membranes; ref MedChemExpress [1]; cited from earlier work
[3] = parameters: method as in MedChemExpress; details: OGTT, oral 1 h prior to dextrose challenge, ref MedChemExpress, cited from earlier work
IKr, Cav1.2, and Nav1.5 = system: IKr, Cav1.2, and Nav1.5; parameters: method as in MedChemExpress; details: ion channel activity; ref MedChemExpress; cited from earlier work
DPP-4 = system: DPP-4; parameters: method as in MedChemExpress [1]; details: ref MedChemExpress [1]; cited from earlier work
[4] = in DMSO; ref MedChemExpress; cited from earlier work
all proteases tested = system: all proteases tested; parameters: method as in MedChemExpress; details: selectivity; ref MedChemExpress; cited from earlier work
[5] = target: 168 radioligand binding or enzymatic assays; parameters: method as in MedChemExpress; details: MDS Pharma, ref MedChemExpress, read-out: IC50 in all counterscreen assays; cited from earlier work
Marburg (MARV) = details: ref MedChemExpress [1][2]; cited from earlier work
EBOV Zaire = details: ref MedChemExpress [1][2]; read-out: IC50 infectious EBOV Zaire; cited from earlier work

Compound: COc1cc(Cl)c(C(=O)N[C@@H](CN[C@H]2CC[C@@H](N)CC2)Cc2ccc(C#N)cc2)cc1-c1ccc(CN[C@H](C)c2ccc(C)cc2)o1 [BAY-850]
- IC50 [1]: 166 nM
- 1-D Distance (Rlig1-AMP; HTS hits): 2218
- Raw data [w Enyzm] (Rlig1-AMP; HTS hits): 10576
- Raw data [w/o Enzym] (Rlig1-AMP; HTS hits): 12794
- solubility ([2]; DMSO): 62.5 mg/mL and 95.53 mM
- solubility ([2]; H2O): < 0.1 mg/mL

Compound: CC(C)(c1ccc(O)cc1)c1ccc(OCc2cccc(COc3ccc(C(=N)N)cc3)c2)cc1.Cl [BIIL-260 (hydrochloride)]
- 1-D Distance.npi (Rlig1-AMP; sheet HTS hits): 102.737
- 1-D Distance (Rlig1-AMP; sheet HTS hits): 216
- Raw data [w Enyzm] (Rlig1-AMP; sheet HTS hits): 4623
- Raw data [w/o Enzym] (Rlig1-AMP; sheet HTS hits): 4407
- Ki (LTB4 receptor): 1.7 nM

Compound: CS(=O)(=O)n1cc2c(n1)CN([C@H]1CO[C@H](c3cc(F)ccc3F)[C@@H](N)C1)C2 [Omarigliptin]
- reduction in glucose AUC ([3]; 0.01 mg/kg): 7%
- reduction in glucose AUC ([3]; 0.3 mg/kg): 51%
- IC50 (IKr, Cav1.2, and Nav1.5): > 30000 nM
- 1-D Distance (Rlig1-AMP; sheet HTS hits): 1732
- Raw data [w Enyzm] (Rlig1-AMP; sheet HTS hits): 9138
- Raw data [w/o Enzym] (Rlig1-AMP; sheet HTS hits): 10870
- IC50 (DPP-4): 1.6 nM
- solubility, DMSO [4]: DMSO : 50 mg/mL (125.49 mM; Need ultrasonic)
- IC50 (all proteases tested): > 67000 nM
- IC50 [5]: > 10000 nM

Compound: CN(C)CCOc1ccc(/C(=C(/CCCl)c2ccccc2)c2ccccc2)cc1.O=C(O)CC(O)(CC(=O)O)C(=O)O [Toremifene (citrate)]
- IC50 (Marburg (MARV)): 2600 nM
- 1-D Distance.npi (Rlig1-AMP; sheet HTS hits): 77.3877
- 1-D Distance (Rlig1-AMP; sheet HTS hits): 1366
- Raw data [w Enyzm] (Rlig1-AMP; sheet HTS hits): 9443
- IC50 (EBOV Zaire): 70 nM
